How the values were obtained:
[1] = Detergent and micelle properties; assay type: physicochemical; settings: for Est. Micelle MW: estimated micelle molecular weight
[2] = tested on: E. coli DH5α expressing homoprotocatechuate 2,3-dioxygenase (2,3-HPCD); assay type: cell-based; settings: 1% w/v for 20 minutes
Experimental: A 200 μL aliquot of 500 μM DHPAC in 50 mM PB at pH 7.5 was added to each well and A380 was measured for up to one hour. The data was then fit to a first order reaction model of the form:
Cp(t)=Cs,0(1−e^−k^r^t) (4)
Cp is the product concentration, Cs,0 is the initial substrate concentration, and kr is the first order reaction rate constant.

[3] = detergent micelle; cited from earlier work

Substance	Est. Micelle MW [1]	change in biocatalytic activity after detergent/surfactant treatment [2]	Aggregation Number [3]	micelle hydrodynamic radii [1]
polysorbate 85 [Tween 85]	110 kDa	modest	60	–
polyethylene glycol p-(1,1,3,3-tetramethylbutyl)-phenyl ether [Triton X-100]	228 kDa	modest	140	~4 nm

From US20200370033A1, “BIOLOGICAL ASSEMBLY INCLUDING BIOLOGICAL COMPONENT AND SHIELD” (Regents of the University of Minnesota, priority 2018, published 2020)
